Measured values: patent US20010044445A1, “AZOLE INHIBITORS OF CYTOKINE PRODUCTION” (priority 1999, published 2001)

Columns and labels:
[1] = test system: Human peripheral blood mononuclear cells; test: Human Concanavalin-A Proliferation Assay (Con HU Assay); type: cell-based; conditions: Homo sapiens, PBMC, concanavalin-A stimulated human PBMC; for inhibition at 10 µM / inhibition at 1 µM / inhibition at 100 µM: 72 h, 3 days, read-out: % Inhibition of proliferation (at concentrations of 1,10, or 100 μm); for inhibition at 10 µM: concentration 10 μm (in parentheses in the cell); for IC50: tritiated thymidine; for inhibition at 1 µM: concentration 1 μm (in parentheses in the cell); for inhibition at 100 µM: concentration 100 μm (in parentheses in the cell)
Summary of the method: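 Proliferation read as tritiated thymidine uptake (0.5 μCi/well, 6 h pulse on day 3) in human PBMC cultured 3 days with 2.5 μg/ml (final) concanavalin-A. Cells, 50,000 per well in supplemented RPMI 1640 with 10% FBS, received compound 15 min before mitogen.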

Structure (SMILES) | melting point [°C] | inhibition at 10 µM [1] [%] | IC50 [1] [nM] | inhibition at 1 µM [1] [%] | inhibition at 100 µM [1] [%]
Cc1nc(C)c(C(=O)Nc2ccc(-n3nc(C(F)(F)F)cc3C(F)(F)F)cc2)s1 [Example 105, N-[4-[3,5-bis(trifluoromethyl)-1H-pyrazol-1-yl]phenyl]-2,4-dimethyl-5-thiazolecarboxamide] | 158 to 159 | 100 | 387 | – | –
O=C(Nc1ccc(-n2nc(C(F)(F)F)cc2C(F)(F)F)cc1)c1cccnc1 [Example 106, N-[4-[3,5-bis(trifluoromethyl)-1H-pyrazol-1-yl]phenyl]-3-pyridinecarboxamide] | 185 to 188 | 100 | 237 | – | –
O=C(Nc1ccc(-n2nc(C(F)(F)F)cc2C(F)(F)F)cc1)c1ccc(CO)cc1 [Example 107, N-[4-[3,5-bis(trifluoromethyl)-1H-pyrazol-1-yl]phenyl]-4-(hydroxymethyl)benzamide] | 213 to 214 | 99 | 304 | – | –
CS(=O)(=O)c1ccc(C(=O)Nc2ccc(-n3nc(C(F)(F)F)cc3C(F)(F)F)cc2)cc1 [Example 109, N-[4-[3,5-bis(trifluoromethyl)-1H-pyrazol-1-yl]phenyl]-4-(methylsulfonyl)benzamide] | 216 to 218 | – | – | 45 | –
O=C(Nc1ccc(-n2nc(C(F)(F)F)cc2C(F)(F)F)cc1)c1ccccc1I [Example 110, N-[4-[3,5-bis(trifluoromethyl)-1H-pyrazol-1-yl]phenyl]-2-iodobenzamide] | 180 to 182 | 99 | 314 | – | –
O=C(Nc1ccc(-n2nc(C(F)(F)F)cc2C(F)(F)F)cc1)c1ccccc1F [Example 114, N-[4-[3,5-bis(trifluoromethyl)-1H-pyrazol-1-yl]phenyl]-2-fluorobenzamide] | 188 to 190 | – | 84 | – | 98
O=C(Nc1ccc(-n2nc(C(F)(F)F)cc2C(F)(F)F)cc1)c1ccncc1 [Example 116, N-[4-[3,5-bis(trifluoromethyl)-1H-pyrazol-1-yl]phenyl]-4-pyridinecarboxamide] | 156 to 157 | 100 | 154 | – | –
O=C(Nc1ccc(-n2nc(C(F)(F)F)cc2C(F)(F)F)cc1)c1ccc(Cl)cc1[N+](=O)[O-] [Example 117, N-[4-[3,5-bis(trifluoromethyl)-1H-pyrazol-1-yl]phenyl]-4-chloro-2-nitrobenzamide] | 163 to 166 | – | 158 | – | 100
CC(=O)c1ccc(C(=O)Nc2ccc(-n3nc(C(F)(F)F)cc3C(F)(F)F)cc2)cc1 [Example 119, 4-Acetyl-N-[4-[3,5-bis(trifluoromethyl)-1H-pyrazol-1-yl]phenyl]benzamide] | 203 to 204 | 100 | 572 | – | –
O=C(Nc1ccc(-n2nc(C(F)(F)F)cc2C(F)(F)F)cc1)C1CCNCC1 [Example 125, N-[4-[3,5-bis(trifluoromethyl)-1H-pyrazol-1-yl]phenyl]-4-piperidinecarboxamide] | 156 to 159 | – | – | 6 | –
CS(=O)(=O)c1cccc(C(=O)Nc2ccc(-n3nc(C(F)(F)F)cc3C(F)(F)F)cc2)c1 [Example 126, N-[4-[3,5-bis(trifluoromethyl)-1H-pyrazol-1-yl]phenyl]-3-(methylsulfonyl)benzamide] | 194 to 195 | 79 | 4910 | – | –
O=C(Nc1ccc(-n2nc(C(F)(F)F)cc2C(F)(F)F)cc1)c1ccccc1C(F)(F)F [Example 127, N-[4-[3,5-bis(trifluoromethyl)-1H-pyrazol-1-yl]phenyl]-2-(trifluoromethyl)benzamide] | 133 to 135 | – | 487 | – | 100
COC(=O)c1cccc(C(=O)Nc2ccc(-n3nc(C(F)(F)F)cc3C(F)(F)F)cc2)c1 [Example 129, Methyl 3-[[[4-[3,5-bis(trifluoromethyl)-1H-pyrazol-1-yl]phenyl]amino]carbonyl]benzoate] | 174 to 175 | – | 380 | – | 100

Now from value to molecule, other results behind:

melting point [°C] | Structure (SMILES) | inhibition at 10 µM [1] [%] | IC50 [1] [nM] | inhibition at 1 µM [1] [%] | inhibition at 100 µM [1] [%]
142 to 144 | O=C(Nc1ccc(-n2nc(C(F)(F)F)cc2C(F)(F)F)cc1)c1cccc(Cl)c1 [Example 130, N-[4-[3,5-bis(trifluoromethyl)-1H-pyrazol-1-yl]phenyl]-3-chlorobenzamide] | – | 336 | – | 100
116 to 117 | N#Cc1cccc(/C=C/c2ccc(-n3nc(C(F)(F)F)cc3C(F)(F)F)cc2)c1 [Example 132, (E)-3-[2-[4-[3,5-bis(trifluoromethyl)-1H-pyrazol-1-yl]phenyl]ethenyl]benzonitrile] | 56 | 6220 | – | –
290 to 291 | NC(=O)c1ccc(C(=O)Nc2ccc(-n3nc(C(F)(F)F)cc3C(F)(F)F)cc2)cc1 [Example 133, N-[4-[3,5-bis(trifluoromethyl)-1H-pyrazol-1-yl]phenyl]-1,4-benzenedicarboxamide] | 97 | 315 | – | –
126 to 128 | O=C(Nc1ccc(-n2nc(C(F)(F)F)cc2C(F)(F)F)cc1)c1ccc(F)cc1F [Example 135, N-[4-[3,5-bis(trifluoromethyl)-1H-pyrazol-1-yl]phenyl]-2,4-difluorobenzamide] | – | 207 | – | 100
174 to 176 | O=C(Nc1ccc(-n2nc(C(F)(F)F)cc2C(F)(F)F)cc1)c1ccccc1[N+](=O)[O-] [Example 136, N-[4-[3,5-bis(trifluoromethyl)-1H-pyrazol-1-yl]phenyl]-2-nitrobenzamide] | – | 222 | – | 99
162 to 163 | N#Cc1cccc(C(=O)Nc2ccc(-n3nc(C(F)(F)F)cc3C(F)(F)F)cc2)c1 [Example 137, N-[4-[3,5-bis(trifluoromethyl)-1H-pyrazol-1-yl]phenyl]-3-cyanobenzamide] | – | 120 | – | 98
244 to 245 | NC(=O)c1cccc(C(=O)Nc2ccc(-n3nc(C(F)(F)F)cc3C(F)(F)F)cc2)c1 [Example 138, N-[4-[3,5-bis(trifluoromethyl)-1H-pyrazol-1-yl]phenyl]-1,3-benzenedicarboxamide] | 99 | 364 | – | –
203 to 204 | O=C(Nc1ccc(-n2nc(C(F)(F)F)cc2C(F)(F)F)cc1)c1cccc([N+](=O)[O-])c1 [Example 140, N-[4-[3,5-bis(trifluoromethyl)-1H-pyrazol-1-yl]phenyl]-3-nitrobenzamide] | – | 298 | – | 100
177 to 178 | NS(=O)(=O)c1cccc(C(=O)Nc2ccc(-n3nc(C(F)(F)F)cc3C(F)(F)F)cc2)c1 [Example 141, 3-(aminosulfonyl)-N-[4-[3,5-bis(trifluoromethyl)-1H-pyrazol-1-yl]phenyl]benzamide] | – | – | 4 | –
195 to 196 | COC(=O)c1ccc(C(=O)Nc2ccc(-n3nc(C(F)(F)F)cc3C(F)(F)F)cc2)cc1 [Example 142, methyl 4-[[[4-[3,5-bis(trifluoromethyl)-1H-pyrazol-1-yl]phenyl]amino]carbonyl]benzoate] | 99 | 489 | – | –
100 to 102 | COc1ccccc1C(=O)Nc1ccc(-n2nc(C(F)(F)F)cc2C(F)(F)F)cc1 [Example 143, N-[4-[3,5-bis(trifluoromethyl)-1H-pyrazol-1-yl]phenyl]-2-methoxybenzamide] | – | 1680 | – | 100
169 to 172 | COc1cccc(C(=O)Nc2ccc(-n3nc(C(F)(F)F)cc3C(F)(F)F)cc2)c1 [Example 145, N-[4-[3,5-bis(trifluoromethyl)-1H-pyrazol-1-yl]phenyl]-3-methoxybenzamide] | – | 1590 | – | 94
148 to 151 | O=C(Nc1ccc(-n2nc(C(F)(F)F)cc2C(F)(F)F)cc1)c1cccc(F)c1 [Example 146, N-[4-[3,5-bis(trifluoromethyl)-1H-pyrazol-1-yl]phenyl]-3-fluorobenzamide] | – | 269 | – | 98
182 to 184 | O=C(Nc1ccc(-n2nc(C(F)(F)F)cc2C(F)(F)F)cc1)c1ccccc1Br [Example 147, N-[4-[3,5-bis(trifluoromethyl)-1H-pyrazol-1-yl]phenyl]-2-bromobenzamide] | – | 71 | – | 99
222 to 224 | O=C(Nc1ccc(-n2nc(C(F)(F)F)cc2C(F)(F)F)cc1)c1ccc2c(c1)OCO2 [Example 148, N-[4-[3,5-bis(trifluoromethyl)-1H-pyrazol-1-yl]phenyl]-1,3-benzodioxole-5-carboxamide] | – | 529 | – | 94
115 to 117 | O=C(Nc1ccc(-n2nc(C(F)(F)F)cc2C(F)(F)F)cc1)c1ccc(Cl)nc1Cl [Example 149, N-[4-[3,5-bis(trifluoromethyl)-1H-pyrazol-1-yl]phenyl]-2,6-dichloro-3-pyridinecarboxamide] | – | 336 | – | 100
145 to 147 | O=C(Nc1ccc(-n2nc(C(F)(F)F)cc2C(F)(F)F)cc1)c1cccnc1Cl [Example 150, N-[4-[3,5-bis(trifluoromethyl)-1H-pyrazol-1-yl]phenyl]-2-chloro-3-pyridinecarboxamide] | – | 244 | – | 100
